Test results as given in PMC7125190, “Native/citrullinated LL37-specific T-cells help autoantibody production in Systemic Lupus Erythematosus” (Scientific Reports, 2020).

Tested on: pDCs
Test: Stimulation of pDCs (IFN-α ELISA)
Type: cell-based
Conditions: peptide premixed with human genomic DNA 10 µg/mL, 24 hours, Fig. S4B
Description: Buffy coats of HD were from Centro Trasfusionale, Policlinico Umberto I, Rome, IT. After separation of mononuclear cells by Ficoll centrifugation, pDCs were purified as described[9],[10], by using the Diamond Plasmacytoid Dendritic Cell Isolation Kit (Miltenyi Biotec) to obtain 99% purity.
Antibodies and reagents for flow cytometry, confocal microscopy and immunohistochemistry Antibodies to CD4, CD8, CD3, conjugated with various fluorochromes [FITC, phycoerythrin (PE), peridinin-chlorophyll-protein (PerCp), allophycocyanin (APC), PE-Cy7] were from BD Biosciences or eBiosciences (San Diego, CA). For further LL37-specific T-cell characterization, FITC-, APC-, PE-, PerCp-, PerCpCy5.5-, APC-Cy7-, AlexaFluor488-conjugated CCR6, -CLA, -CXCR5 (FAB190), PD1, -ICOS, -CD38, CD19, CD20, CD27, CD138 antibodies were purchased from BD Biosciences, eBiosciences, Novus Biologicals (Littleton, CO), R&D (Minneapolis, MN), Invitrogen Life Technologies. […]
Purified pDCs were seeded into 96-well round-bottom plates at 3.5/5 × 10^4 cells per well in 200 μl RPMI 1640 (GIBCO), supplemented with 15% fetal calf serum (FCS), 1% Hepes and 1% sodium piruvate. […] IFN-α in supernatants was measured by enzyme linked immunosorbent assay (ELISA) (MabTech, France) after 24 hours. […]

LLGDFFR(cit)KSKEKIGKEFKR(cit)IVQR(cit)IKDFLR(cit)NLVPR(cit)TES [cit-LL37, citrullinated LL37 (citrullinated at all five arginin positions)]
adjuvant activity for DCs: completely devoid of adjuvant activity for DCs
